The record followed here is patent publication US20200278355A1, “CONJUGATED PROTEINS AND USES THEREOF” (THE SCRIPPS RESEARCH INSTITUTE, priority 2017, published 2020).

In this assay the target is T1, NUDT8 (Homo sapiens, UniProt Q8WV74).
T1 construct: H460 cells or H460 cells expressing luciferase in a 10 cm plate were incubated with indicated compounds; endogenous in cells; host or cells: H460
Nature of the assay: isoTOP-ABPP of compound-treated H460 cells: NUDT8. Format: cell-based. The settings on record: NUDT8 C207; 40 μM. As to the method: For analysis of NR0B1 ligands or control compound reactivity, H460 cells or H460 cells expressing luciferase in a 10 cm plate were incubated with indicated compounds in serum/dye-free RPMI for 3 hours at 37° C. Cells were washed once ice-cold PBS and lysed in 1% Triton X-100 dissolved in PBS with protease inhibitors (Sigma) by sonication. Samples were clarified by centrifugation for 10 min at 16,000×g. Lysate was adjusted to 1.5 mg ml^−1 in 500 μL.
Samples were labeled for 1 h at ambient temperature with 100 μM iodoacetamide alkyne (1, IA-alkyne, 5 μL of 10 mM stock in DMSO). Samples were conjugated by copper-catalyzed azide-alkyne cycloaddition (CuAAC) to isotopically labeled, TEV-cleavable tags (TEV-tags). Heavy CuAAC reaction mixtures was added to the DMSO-treated or shGFP control samples and light CuAAC reaction mixture was added to compound-treated or shNRF2 samples. The CuAAC reaction mixture consisted of TEV tags (light or heavy, 10 μL of 5 mM stocks in DMSO, final concentration=100 μM), 1 mM tris(2-carboxyethyl)phosphine hydrochloride (TCEP; fresh 50× stock in water, final concentration=1 mM), ligand (17× stock in DMSO:t-butanol 1:4, final concentration=100 μM) and 1 mM CuSO4 (50× stock in water, final concentration=1 mM). The samples were allowed to react for 1 h at which point the samples were centrifuged (16,000×g, 5 min, 4° C.). […]

Structures are written as SMILES.

T1 sequence (Q8WV74 whole entry): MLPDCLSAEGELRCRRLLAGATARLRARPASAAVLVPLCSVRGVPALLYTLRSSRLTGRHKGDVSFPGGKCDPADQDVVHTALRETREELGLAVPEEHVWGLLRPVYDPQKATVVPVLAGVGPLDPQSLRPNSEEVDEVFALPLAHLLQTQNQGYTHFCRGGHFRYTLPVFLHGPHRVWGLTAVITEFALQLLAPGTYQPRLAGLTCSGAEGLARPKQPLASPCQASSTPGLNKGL

As to `O=C(c1ccc(N2CCOCC2)cc1)N1CCCC(N(Cc2ccccc2)C(=O)CCl)CC1` (stereo not shown) [BPK-29, N-benzyl-2-chloro-N-(1-(4-morpholinobenzoyl)azepan-4-yl)acetamide], the “BPK-29-competed isoTOP-ABPP analysis” value is reported as “Yes (Competed defined as showing R value ≥ 3.0 at 40 μM of test compound)”.
